Test results reported in publication PMC6346587, “Glucose 6-phosphate dehydrogenase 6-phosphogluconolactonase: characterization of the Plasmodium vivax enzyme and inhibitor studies” (Malaria Journal, 2019).

Legend:
P. falciparum 3D7 = experiment: [3H]-hypoxanthine incorporation assay on asexual blood stages; assay type: cell-based, Plasmodium falciparum; details: 72 h [3H]-hypoxanthine incorporation assay
recombinant hGrx1-roGFP2 = target: T1, recombinant hGrx1-roGFP2 (Homo sapiens, UniProt P35754); experiment: In vitro interaction with recombinant hGrx1-roGFP2 probe; assay type: biochemical; details: at the concentrations used in this study
T1 construct: made in house
Protocol: The sensor hGrx1–roGFP2 (human glutaredoxin 1-reduction–oxidation sensitive green fluorescent protein 2) was recently transiently expressed in 3D7 P. falciparum parasites by using the pARL1a(+) expression vector. Heterologous overexpression of hGrx1–roGFP2 for the evaluation of the in vitro interactions of ML304 and anti-malarial drugs with the recombinant redox probe was performed according to [35].
ML304 was used at concentrations of 10 nM to 1 mM in degassed standard reaction buffer (100 mM potassium phosphate, 1 mM EDTA, pH 7.0). […] The characterization of the in vitro interaction of hGrx1–roGFP2 with ML304 was performed according to Schuh et al..

[1] = tested on: P. falciparum NF54[hGrx1-roGFP2] glutathione redox ratio; experiment: Cytosolic glutathione redox sensor hGrx1-roGFP2, fluorescence plate reader; assay type: cell-based, Plasmodium falciparum
Protocol: NF54^[hGrx1–roGFP2] parasites were washed and resuspended after incubation in pre-warmed Ringer’s solution to a concentration of […]. 10 µL of cells (1 × 10^6 iRBCs) were transferred to each well of a 384-well plate (black, flat bottom, Greiner Bio-One, Frickenhausen, Germany) and were measured with the plate reader Clariostar (BMG Labtech, Ortenberg, Germany) with excitation wavelengths at 405 nm and 475 nm (emission 510 nm). The gain of the 405 nm and 475 nm excitation wavelengths was adjusted to match the full dynamic range of the hGrx1–roGFP2 redox sensor. The 405/475 nm ratio was then calculated. The graphs were plotted using the GraphPad Prism 5 software (San Diego, CA, USA). A one-way ANOVA test with 95% confidence intervals with the Dunnett’s multiple comparison test (GraphPad Prism 5.0) was applied for statistical analysis of significance (*p < 0.05; **p < 0.01; ***p < 0.001).
Recently, the cytosolic glutathione redox sensor was stably integrated into NF54-attB parasites. The direct response of NF54^[hGrx1–roGFP2] to mid- and long-term exposures were determined using the time-efficient plate reader (Clariostar). […] As depicted in Fig. 7, ML304 oxidized the cytosol, leading to an increase of the 405/488 nm ratio of the probe in a concentration-dependent manner with significant differences after a 24 h incubation.

[2] = tested on: P. falciparum 3D7[hGrx1-roGFP2] cytosolic glutathione-dependent redox potential; experiment: Cytosolic glutathione redox sensor hGrx1-roGFP2, confocal live cell imaging (CLSM); assay type: cell-based, Plasmodium falciparum; details: for Oxidation of the hGrx1-roGFP2 sensor: comparable to 1 mM DIA
Protocol: A Leica confocal system TCS SP5 inverted microscope equipped with the objective HCX PL APO 63.0 × 1.30 GLYC 37 °C UV connected to a 37 °C temperature chamber was used. The argon laser power was set to 20%; scanning was performed at 400 Hz frequency and at a 512 × 512 pixel resolution. The smart gain and smart offset were 950 V and −0.9%, respectively. With a sequential scan, the hGrx1–roGFP2 probe was excited at 405 nm and at 488 nm and emission was detected at 500–550 nm. Laser intensity was adjusted to match the full dynamic range of the probe to the dynamic range of the detector (405 nm: 10%, 488 nm: 4%). […] The Leica LAS AF Lite software for fluorescence analysis was used. The 405/488 nm ratio was calculated. The graphs were plotted using the GraphPad Prism 5 software (San Diego, CA, USA). For live cell imaging, only parasites showing fluorescent signals at both 405 and 488 nm excitation and an intact host cell were chosen.
The effect of ML304 and the anti-malarial drugs ATS and CQ as reference drugs on P. falciparum were investigated in 4 h and 24 h incubation experiments. […] For 4 h experiments, trophozoite stage parasites (26–30 h) of 3D7^[hGrx1–roGFP2] and NF54^[hGrx1–roGFP2] (6–8% parasitaemia) were magnetically enriched (Miltenyi Biotec, Germany), counted by using a Neubauer hemocytometer (Brand GmbH, Germany), and returned to cell culture (at 2.0 × 10^4 trophozoites μL^−1) for at least 1 h to recover. 1.0 × 10^6 cells in 100 μL cell culture medium were placed into LoBind tubes (Eppendorf, Hamburg, Germany) for 4 h incubation experiments. The parasites were treated with ML304 at 1 μM, 50 μM, and 100 μM, or with the anti-malarial drugs ATS and CQ at approximately 50 × EC50 for 4 h under cell culture conditions. Subsequently, free thiol groups were blocked with 2 mM N-ethylmaleimide (NEM) for 15 min at 37 °C. For 24 h experiments, a 5 mL culture (5% haematocrit, 6–8% parasitaemia) of ring stage parasites (6–10 h post invasion) was treated with ML304 at 1 μM, 5 μM, and 10 μΜ, or the anti-malarial drugs ATS and CQ at approximately 4 × EC50. Prior to enrichment, cysteines were blocked with 2 mM NEM for 15 min at 37 °C. For 4 h and 24 h experiments, cells were washed after incubation and resuspended in Ringer’s solution (122.5 mM NaCl, 5.4 mM KCl, 1.2 mM CaCl2, 0.8 mM MgCl2, 11 mM D-glucose, 25 mM HEPES, 1 mM NaH2PO4, pH 7.4). 50 μL of cells (1.0 × 10^6 cells 50^−1 μL^−1) were seeded onto poly-L-lysine-coated μ-Slides 18 well (flat) (Ibidi, Martinsried, Germany) and measured using CLSM (confocal laser scanning microscopy) with excitation wavelengths at 405 nm and 488 nm. […] Each experiment was carried out three times. Between 10 and 20 microscopy images were taken each time, resulting in at least 30 experimental values per concentration and incubation time. The obtained ratio values were normalized to the control value, which was set to 100. All experiments were carried out within 6 weeks after the appearance of transfectants. Mean and standard error of the mean (SEM) are shown. A one-way ANOVA test with 95% confidence intervals with the Dunnett’s multiple comparison test (GraphPad Prism 5.0) was applied for statistical analysis of significance (*p < 0.05; **p < 0.01; ***p < 0.001).

## CCN1CCC[C@@H]1CNC(=O)c1ccc2c(c1)NC(=O)c1cccc(C)c1S2 [ML304]
P. falciparum 3D7
  EC50: 471 ± 39.5 nM
Recombinant hGrx1-roGFP2
  Direct interaction with recombinantly purified hGrx1-roGFP2 probe: excluded a direct interaction
[1]; 8.88 µM, 24 h, ring stage, p < 0.01
  Increase of 405/475 nm fluorescence ratio: threefold
[1]; 4 h incubation, trophozoite stage, 1 to 100 times EC50
  Effect on fluorescence ratio: concentration-dependent increase in fluorescence ratio
[2]; 5 µM, 24 h incubation
  Oxidation of the hGrx1-roGFP2 sensor: completely oxidize the sensor
[2]; 50 µM, 4 h incubation
  Oxidation of the hGrx1-roGFP2 sensor: completely oxidize the sensor
[2]; 4 h incubation, trophozoites, 1, 50 and 100 µM (p < 0.05 at 1 µM, p < 0.001 at 50 and 100 µM)
  Effect on 405/488 nm ratio of hGrx1-roGFP2: significant effects
[2]; 24 h incubation, ring stage (p < 0.05 at 1 µM, p < 0.001 at 50 µM and 100 µM as printed)
  Effect on 405/488 nm ratio of hGrx1-roGFP2: significantly increased
